The values that follow come from ChEMBL document CHEMBL5233273, “An overview of hydroxypyranone and hydroxypyridinone as privileged scaffolds for novel drug discovery” (Eur J Med Chem, 2021).

The test system of one assay is Pichia kudriavzevii. The experiment in a line: Antifungal activity against Candida krusei ATCC 6258. It is filed as functional.
In assay [1] the test system is Mycobacterium tuberculosis. The experiment in a line: Antitubercular activity against Mycobacterium tuberculosis H37Rv ATCC 27294. It is filed as functional.
For another assay, the system named is Mycobacterium avium. Put plainly: Antitubercular activity against Mycobacterium avium ATCC 15769. It is filed as functional.
Assay [2] has as its system Escherichia coli. Put plainly: Antibacterial activity against Escherichia coli ATCC 35218. It is filed as functional.
In the next assay the test system is Pseudomonas aeruginosa. Put plainly: Antibacterial activity against Pseudomonas aeruginosa ATCC 10145. It is filed as functional.
A further assay relates to Proteus mirabilis. Put plainly: Antibacterial activity against Proteus mirabilis ATCC 7002. Format: functional.
Another assay relates to Klebsiella pneumoniae. The experiment in a line: Antibacterial activity against Klebsiella pneumoniae RSKK 574. Format: functional.
Another assay has as its system Acinetobacter baumannii. The experiment in a line: Antibacterial activity against Acinetobacter baumannii i RSKK 02026. Format: functional.
In the next assay the test system is Candida albicans. The experiment in a line: Antifungal activity against Candida albicans ATCC10231. It is filed as functional.
For the next assay, the system named is Candida parapsilosis. The experiment in a line: Antifungal activity against […]. It is filed as functional. The settings on record: Lodderomyces parapsilosis.
The subject of a further assay is Candida tropicalis. The experiment in a line: Antifungal activity against Candida tropicalis ATCC 13803. Format: functional.
The nature of assay [3]: Antiinflammatory activity in macrophages assessed as reduction in LPS-induced NO production. Format: functional, cell-based. The following applies: Macrophage.
The test system of assay [4] is Staphylococcus aureus. Put plainly: Antibacterial activity against Staphylococcus aureus. It is filed as functional.
Assay [5] concerns Escherichia coli. The experiment in a line: Antibacterial activity against Escherichia coli. It is filed as functional.
For a further assay, the system named is Saccharomyces cerevisiae. Put plainly: Antifungal activity against Saccharomyces cerevisiae. Format: functional.
The subject of a further assay is Aspergillus niger. Put plainly: Antifungal activity against Aspergillus niger. It is filed as functional.
Assay [6] relates to Staphylococcus aureus. The experiment in a line: Antibacterial activity against Staphylococcus aureus assessed as zone of inhibition. It is filed as functional.
Assay [7] concerns Bacillus subtilis. Put plainly: Antibacterial activity against Bacillus subtilis assessed as zone of inhibition. It is filed as functional.
The subject of assay [8] is B16-F10. Put plainly: Inhibition of tyrosinase in mouse B16-F10 cells assessed as inhibition of melanin production at 5 ug relative to control. It is filed as cell-based. The following applies: dose 5.0 µg.
In assay [9] the test system is B16-F10. Put plainly: Inhibition of tyrosinase in mouse B16-F10 cells assessed as inhibition of melanin production at 10 ug/ml relative to control. The settings on record: dose 10.0 µg/ml. Format: cell-based.
The next assay deals with RAW264.7. The experiment in a line: Antiinflammatory activity in mouse RAW264.7 assessed as reduction in LPS-induced PGE2 production. Format: functional, cell-based.
For assay [10], the system named is Enterococcus faecalis. The experiment in a line: Antibacterial activity against Enterococcus faecalis. It is filed as functional.
Assay [11] concerns Staphylococcus aureus. Put plainly: Antibacterial activity against Staphylococcus aureus ATCC 25923. It is filed as functional.
The test system of assay [12] is Enterococcus faecalis. The experiment in a line: Antibacterial activity against Enterococcus faecalis ATCC 29212. It is filed as functional.
Assay [13] concerns Bacillus subtilis. The experiment in a line: Antibacterial activity against Bacillus subtilis ATCC 6633. It is filed as functional.
Another assay has as its system A549. Put plainly: Cytotoxicity against human A549 cells. Format: functional, cell-based.
The subject of a further assay is DU-145. Put plainly: Cytotoxicity against human DU-145 cells. It is filed as functional, cell-based.
The test system of the next assay is MCF7. The experiment in a line: Cytotoxicity against human MCF7 cells. It is filed as functional, cell-based.
The next assay deals with HeLa. The experiment in a line: Cytotoxicity against human HeLa cells. It is filed as functional, cell-based.
Assay [14] can be described thus: Antioxidant activity assessed as DPPH radical scavenging activity. Format: functional. Background: Loss of DPPH colour is used to gauge radical scavenging.
In the next assay the test system is Hepatitis C virus. The experiment in a line: Antiviral activity against HCV. Format: functional, organism-based, Hepacivirus hominis.
Assay [15] has as its target Amine oxidase [flavin-containing] B (Homo sapiens, UniProt P27338). The experiment in a line: Inhibition of human MAO-B.
The target in assay [16] is T1, Tyrosinase (Agaricus bisporus) (UniProt O42713).
T1 sequence (whole entry): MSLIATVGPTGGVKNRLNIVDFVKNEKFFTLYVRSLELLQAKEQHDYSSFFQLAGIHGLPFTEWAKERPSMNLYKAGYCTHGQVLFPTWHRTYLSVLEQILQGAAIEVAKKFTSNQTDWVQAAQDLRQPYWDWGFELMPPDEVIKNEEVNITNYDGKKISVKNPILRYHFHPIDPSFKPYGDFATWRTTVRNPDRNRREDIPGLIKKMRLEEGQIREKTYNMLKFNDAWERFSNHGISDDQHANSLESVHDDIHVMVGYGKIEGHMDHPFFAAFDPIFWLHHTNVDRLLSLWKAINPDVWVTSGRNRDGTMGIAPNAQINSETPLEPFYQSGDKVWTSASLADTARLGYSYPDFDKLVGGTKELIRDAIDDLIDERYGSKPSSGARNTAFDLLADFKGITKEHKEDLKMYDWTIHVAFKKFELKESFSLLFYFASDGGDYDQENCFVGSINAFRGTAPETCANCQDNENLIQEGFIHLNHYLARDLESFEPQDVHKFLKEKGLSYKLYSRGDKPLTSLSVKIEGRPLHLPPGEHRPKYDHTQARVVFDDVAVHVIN
The experiment in a line: Inhibition of mushroom tyrosinase monophenolase activity.

Assay [17] addresses T2, Tyrosinase (Agaricus bisporus, UniProt O42713).
T2 sequence (O42713 whole entry): T1 sequence (whole entry)
Put plainly: Inhibition of mushroom tyrosinase diphenolase activity.

Assay [18] addresses T2, Tyrosinase. The experiment in a line: Inhibition of mushroom tyrosinase.
Assay [19] is described as follows: Inhibition of TBHP induced lipid peroxidation in human HaCaT cells. It is filed as functional.

Molecules are shown by their SMILES. Values after ≈ are worked out from the molar mass of the structure shown.

Sequence of Amine oxidase [flavin-containing] B (P27338 whole entry): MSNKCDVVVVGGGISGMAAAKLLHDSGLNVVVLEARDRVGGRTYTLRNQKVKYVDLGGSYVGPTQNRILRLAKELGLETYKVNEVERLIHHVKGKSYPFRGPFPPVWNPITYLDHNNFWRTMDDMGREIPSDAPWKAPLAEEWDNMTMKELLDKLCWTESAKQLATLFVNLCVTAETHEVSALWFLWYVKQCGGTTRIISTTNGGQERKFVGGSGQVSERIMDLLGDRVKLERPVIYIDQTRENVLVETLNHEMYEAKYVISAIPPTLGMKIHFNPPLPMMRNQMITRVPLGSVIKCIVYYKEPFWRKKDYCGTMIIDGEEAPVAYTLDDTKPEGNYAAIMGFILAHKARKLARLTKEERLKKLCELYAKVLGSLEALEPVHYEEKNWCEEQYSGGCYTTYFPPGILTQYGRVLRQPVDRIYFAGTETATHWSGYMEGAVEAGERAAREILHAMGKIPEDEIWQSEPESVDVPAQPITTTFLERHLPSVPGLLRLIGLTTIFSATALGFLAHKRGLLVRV

For the molecule `O=c1cc(CCl)oc(CN2CCN(c3ccccc3)CC2)c1O`, the MIC (as a rule, the lowest concentration that inhibits growth of the organism) turned out to be 8 µg/mL (≈ 23.9 µM) in the assay on Pichia kudriavzevii; 4 µg/mL (≈ 11.9 µM) in [1]; 4 µg/mL (≈ 11.9 µM) in the assay on Mycobacterium avium; 8 µg/mL (≈ 23.9 µM) in the assay with Escherichia coli [2]; 8 µg/mL (≈ 23.9 µM) in the assay with Pseudomonas aeruginosa; 8 µg/mL (≈ 23.9 µM) with Proteus mirabilis. The MIC against Klebsiella pneumoniae, in the assay on Acinetobacter baumannii, in the assay with Candida albicans, with Candida parapsilosis and against Candida tropicalis was 8 µg/mL (≈ 23.9 µM) each time.

On to `O=c1cc(CSc2ccc(Cl)cc2)occ1O`, for which the IC50 (commonly the concentration needed to halve the response being measured) in assay [3] was 23.9 µM.

For the molecule `CO[C@@H]1O[C@H](COCc2cc(=O)c(O)co2)[C@@H](C)[C@H](OCc2cc(=O)c(O)co2)[C@H]1N`, the MIC with Staphylococcus aureus [4], against Escherichia coli [5], against Saccharomyces cerevisiae and in the assay on Aspergillus niger was 1040 µg/mL (≈ 2370 µM) throughout.

`N#CC(C(=O)c1c[nH]c2ccccc12)C(c1ccc(Cl)cc1)c1oc(CO)cc(=O)c1O` (centres undefined): the “inhibition zone (IZ)” value was 22 mm in the assay with Staphylococcus aureus [6] and 19.5 mm in the assay with Bacillus subtilis [7].

On to `O=c1cc(/C=C/c2cc(=O)c(O)co2)occ1O`, for which the inhibition – broadly, the percentage by which the read-out fell short of the control – with B16-F10 [8] was determined as 19.5%.

`O=C(/C=C/c1cc(=O)c(O)co1)OCCCOCCCOC(=O)/C=C/c1cc(=O)c(O)co1`: the inhibition in the assay with B16-F10 [9] is 22.4%.

For the molecule `O=c1cc(/C=C/c2ccc(O)c(O)c2)occ1O`, the IC50 with RAW264.7 amounted to 10.3 µM.

For `Cc1cc(=O)c(O)c(C(=O)Nc2ccc3c(C)cc(=O)oc3c2)o1`, the MIC with Staphylococcus aureus [4] turned out to be 8 µg/mL (≈ 24.4 µM); against Enterococcus faecalis [10], 8 µg/mL (≈ 24.4 µM); in the assay with Escherichia coli [5], 8 µg/mL (≈ 24.4 µM); in the assay on Pichia kudriavzevii, 4 µg/mL (≈ 12.2 µM).

`O=c1cc(CCl)oc(CN2CCN(Cc3ccc(C(F)(F)F)cc3)CC2)c1O`: the MIC is 4 µg/mL (≈ 9.6 µM) in [1]; 4 µg/mL (≈ 9.6 µM) against Mycobacterium avium; 4 µg/mL (≈ 9.6 µM) with Staphylococcus aureus [11]; 4 µg/mL (≈ 9.6 µM) against Enterococcus faecalis [12]; 4 µg/mL (≈ 9.6 µM) in the assay with Bacillus subtilis [13]; 8 µg/mL (≈ 19.2 µM) in the assay with Escherichia coli [2]. In addition, the MIC in the assay on Pseudomonas aeruginosa, with Proteus mirabilis, in the assay with Klebsiella pneumoniae and in the assay on Acinetobacter baumannii was 8 µg/mL (≈ 19.2 µM) in each case.

Turning to `CC(C)(C)[Si](C)(C)OCc1cc(=O)c(O)c(C(C[N+](=O)[O-])c2ccc(Cl)cc2)o1` (centres undefined), the IC50 with A549 came out at 18 µM; in the assay with DU-145, 16 µM; in the assay with MCF7, 18 µM; in the assay on HeLa, 11 µM.

Regarding `CCOC(=O)CC(c1ccccc1)c1oc(CO)cc(=O)c1O` (centres undefined), in assay [14], the Activity was 58.2%.

As for `O=c1cc(/C=C/c2ccc(O)cc2)occ1O`, in the assay on RAW264.7, the IC50 turned out to be 3.2 µM.

`O=C(OCc1cc(=O)c(O)co1)c1ccc2ccccc2c1`: the response in the assay with Hepatitis C virus was half-maximal at 2740 nM (EC50).

The molecule `CCc1c(O)c(=O)cc(C)n1CCCn1cc(COc2ccc3ccc(=O)oc3c2)nn1` gave an IC50 in assay [15] of 680 nM.

Molecule `CCCCCCn1cc(O)c(=O)cc1/C=N/OCC` had an IC5 in assay [16] of 2.04 µM. On Tyrosinase [17], this molecule gave an IC50 of 13.9 µM.

Take `COc1ccc(C(=O)OCc2cc(=O)c(O)co2)cc1`: the IC50 at Tyrosinase [18] came out at 20 µM. In the assay on Hepatitis C virus, the EC50 (as a rule, the concentration giving half of the maximal effect) turned out to be 2550 nM.

On to `O=C(/C=C/c1ccc2c(c1)OCO2)OCc1cc(=O)c(O)co1`, for which it took 1.4 µM to reach half-maximal inhibition against Tyrosinase [18] (IC50). Besides, the “inhibition (INH)” value in [19] amounted to 47%.
